Series [1] in a line: Cytotoxicity against human TZM-bl cells assessed as reduction cell viability at <12.5 uM after 2 days by XTT assay. As to conditions: 48 h. Type of series: cell-based. A general note: Formazan colour is commonly taken as a measure of viable cells.
Series [2] is described as follows: Plasma concentration in Sprague-Dawley rat at […], sc after 6 hrs. Type of series: ADME, organism-based.
The target of series [3] is GP41 (Human immunodeficiency virus 1) (UniProt Q76270). Briefly: Binding affinity to HIV1 gp41 (46 residues) assessed as effect on protein secondary structure measured as alpha-helicity in PBS buffer at pH 7.2 by circular dichroism assay (reference value: 117 %). (In general: Circular dichroism is widely used to follow secondary structure.)
Series [4] relates to Human immunodeficiency virus 1. In words: Antiviral activity against HIV-1 SF33 infected in TZM-bl cells after 2 days by luciferase reporter gene assay. Format: functional, organism-based. As to conditions: Human immunodeficiency virus 1, SF33, TZM-bl, 48 h. In general terms: A reporter such as luciferase makes a cellular process visible.
The nature of series [5]: Half life in Sprague-Dawley rat at […], sc after 6 hrs. As to conditions: in vivo. Type of series: ADME, organism-based.
The next series has as its target GP41 (Human immunodeficiency virus 1, UniProt Q76270). In words: Binding affinity to HIV1 gp41 (46 residues) by surface plasmon resonance method.

In the case of enfuvirtide, the results for the Activity entry in series [1] and in series [3] were “Non-toxic” and 67%, respectively. Also, in series [2], the concentration at 6 h is under 1000 nM. The EC50 in series [4] is 3 nM. The 90% effect concentration (EC90) in series [4] came out at 23 nM. The half-life at 6 h in series [5] was 1.5 h. In addition, at GP41, binding was characterised by a dissociation constant (Kd) of 182 nM.

For orientation: EC50 means the concentration at which the effect is half-maximal. The EC90 is the point of the concentration-response curve where the effect stands at 90%. By half-life is commonly meant the time in which the quantity being followed falls by half. Read a low half-life as rapid decline. What is called Kd is the concentration at which binding is half-saturated. Read a low Kd as tighter binding.

Source of the values: ChEMBL document CHEMBL3407456, “Glycosylated enfuvirtide: a long-lasting glycopeptide with potent anti-HIV activity” (J Med Chem, 2015).
